Results from ChEMBL document CHEMBL1201862, “PubChem BioAssay data set” (2004).
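All cell lines were grown in 96-well plates and treated with compound for 48 hours. GI50 marks 50% less growth.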 Calls of active or inactive are those of the source. Rule as the data show it: active = GI50 up to about 1.1 µM and inactive = higher.

What was measured:
Experiment in all cases: DTP human tumour cell line panel, 48 h
[1] = tested on: MDA-MB-231
[2] = tested on: TK-10
[3] = tested on: A498
[4] = tested on: IGROV-1
[5] = tested on: MOLT-4
[6] = tested on: SNB-75
[7] = tested on: PC-3
[8] = tested on: COLO 205
[9] = tested on: OVCAR-3
[10] = tested on: DU-145
[11] = tested on: SF-295
[12] = tested on: UACC-62
[13] = tested on: BT-549
[14] = tested on: CAKI-1
[15] = tested on: A549
[16] = tested on: HCC 2998
[17] = tested on: HL-60
[18] = tested on: Hs-578T
[19] = tested on: U-251
[20] = tested on: NCI-H522
[21] = tested on: SNB-19
[22] = tested on: SK-MEL-28
[23] = tested on: OVCAR-5
[24] = tested on: NCI-H460
[25] = tested on: SW-620
[26] = tested on: Malme-3M
[27] = tested on: SR
[28] = tested on: HCT-116
[29] = tested on: MCF7
[30] = tested on: NCI/ADR-RES
[31] = tested on: SK-OV-3
[32] = tested on: MDA-N
[33] = tested on: NCI-H23
[34] = tested on: HOP-62
[35] = tested on: KM12
[36] = tested on: UO-31
[37] = tested on: HT-29
[38] = tested on: OVCAR-4
[39] = tested on: T47D
[40] = tested on: UACC-257
[41] = tested on: SN12C
[42] = tested on: HOP-92
[43] = tested on: MDA-MB-435
[44] = tested on: K562
[45] = tested on: SF-268
[46] = tested on: SF-539
[47] = tested on: HCT-15
[48] = tested on: OVCAR-8
[49] = tested on: CCRF-CEM
[50] = tested on: 786-0
[51] = tested on: RPMI-8226
[52] = tested on: ACHN
[53] = tested on: EKVX
[54] = tested on: RXF 393
[55] = tested on: SK-MEL-2
[56] = tested on: LOX IMVI
[57] = tested on: M14
[58] = tested on: NCI-H226
[59] = tested on: SK-MEL-5

Which GI50 [1] does the source give for `Nc1c(O)c(C(=O)O)cc2ccccc12` here?
Its GI50 is 15.3 µM (inactive).

What about the GI50 [2] of the same compound?
Its GI50 is 98.4 µM (inactive).

And the GI50 [3]?
The GI50 was > 100 µM (inactive).

What about the GI50 [4] of the same compound?
Its GI50 is > 100 µM (inactive).

And the GI50 [5]?
The GI50 was 29.8 µM (inactive).

What about the GI50 [6] of the same compound?
The GI50 was 24.3 µM (inactive).

And the GI50 [7]?
The GI50 was 39.1 µM (inactive).

And the GI50 [8]?
Its GI50 is 26.1 µM (inactive).

What about the GI50 [9] of the same compound?
Its GI50 is 24.3 µM (inactive).

And the GI50 [10]?
The GI50 was 17.9 µM (inactive).

And the GI50 [11]?
Its GI50 is 51.8 µM (inactive).

And the GI50 [12]?
The GI50 was 17 µM (inactive).

What about the GI50 [13] of the same compound?
Its GI50 is 21.3 µM (inactive).

What about the GI50 [14] of the same compound?
Its GI50 is 22.6 µM (inactive).

And the GI50 [15]?
The GI50 was 45.4 µM (inactive).

And the GI50 [16]?
Its GI50 is 94 µM (inactive).

And the GI50 [17]?
Its GI50 is 32.7 µM (inactive).

What about the GI50 [18] of the same compound?
The GI50 was 37 µM (inactive).

And the GI50 [19]?
Its GI50 is 30.3 µM (inactive).

What about the GI50 [20] of the same compound?
Its GI50 is 17.7 µM (inactive).

And the GI50 [21]?
Its GI50 is > 100 µM (inactive).

And the GI50 [22]?
Its GI50 is 37.2 µM (inactive).

What about the GI50 [23] of the same compound?
The GI50 was 18.9 µM (inactive).

What about the GI50 [24] of the same compound?
Its GI50 is 39.6 µM (inactive).

What about the GI50 [25] of the same compound?
The GI50 was 18.3 µM (inactive).

What about the GI50 [26] of the same compound?
Its GI50 is 15.3 µM (inactive).

What about the GI50 [27] of the same compound?
Its GI50 is 39.4 µM (inactive).

And the GI50 [28]?
The GI50 was 17.5 µM (inactive).

What about the GI50 [29] of the same compound?
Its GI50 is 11.6 µM (inactive).

And the GI50 [30]?
Its GI50 is 32.1 µM (inactive).

And the GI50 [31]?
The GI50 was > 100 µM (inactive).

What about the GI50 [32] of the same compound?
The GI50 was 17.9 µM (inactive).

What about the GI50 [33] of the same compound?
Its GI50 is 23.3 µM (inactive).

And the GI50 [34]?
The GI50 was > 100 µM (inactive).

What about the GI50 [35] of the same compound?
Its GI50 is 40.2 µM (inactive).

What about the GI50 [36] of the same compound?
Its GI50 is 47.3 µM (inactive).

What about the GI50 [37] of the same compound?
The GI50 was 17 µM (inactive).

And the GI50 [38]?
Its GI50 is 22.9 µM (inactive).

And the GI50 [39]?
Its GI50 is 37 µM (inactive).

What about the GI50 [40] of the same compound?
The GI50 was 17.3 µM (inactive).

What about the GI50 [41] of the same compound?
The GI50 was 38.4 µM (inactive).

What about the GI50 [42] of the same compound?
Its GI50 is 35 µM (inactive).

What about the GI50 [43] of the same compound?
Its GI50 is 18.8 µM (inactive).

What about the GI50 [44] of the same compound?
Its GI50 is 31.8 µM (inactive).

What about the GI50 [45] of the same compound?
Its GI50 is 42 µM (inactive).

And the GI50 [46]?
Its GI50 is 40.6 µM (inactive).

What about the GI50 [47] of the same compound?
The GI50 was 36.6 µM.

What about the GI50 [48] of the same compound?
The GI50 was 44.3 µM (inactive).

And the GI50 [49]?
The GI50 was 37.8 µM (inactive).

And the GI50 [50]?
The GI50 was 19.6 µM (inactive).

And the GI50 [51]?
Its GI50 is 33.3 µM (inactive).

And the GI50 [52]?
The GI50 was 25.4 µM (inactive).

What about the GI50 [53] of the same compound?
Its GI50 is 53.8 µM (inactive).

What about the GI50 [54] of the same compound?
Its GI50 is > 100 µM (inactive).

And the GI50 [55]?
The GI50 was 17.7 µM (inactive).

And the GI50 [56]?
Its GI50 is 10.6 µM (inactive).

And the GI50 [57]?
The GI50 was 17.7 µM (inactive).

And the GI50 [58]?
Its GI50 is 30.1 µM (inactive).

And the GI50 [59]?
The GI50 was 14.7 µM (inactive).

How did the GI50 [1] turn out when `O=C(Cc1ccc(Cl)c(Cl)c1)N(CCc1ccc(Cl)c(Cl)c1)CCN1CCCC1` was run?
Its GI50 is 1.76 µM (inactive).

And the GI50 [2]?
Its GI50 is 1.81 µM (inactive).

And the GI50 [3]?
Its GI50 is 1.85 µM (inactive).

What about the GI50 [4] of the same compound?
Its GI50 is 1.74 µM (inactive).

What about the GI50 [5] of the same compound?
The GI50 was 1.34 µM (inactive).

What about the GI50 [6] of the same compound?
Its GI50 is 2.05 µM (inactive).

What about the GI50 [7] of the same compound?
Its GI50 is 1.83 µM (inactive).

And the GI50 [8]?
The GI50 was 1.68 µM (inactive).

What about the GI50 [9] of the same compound?
Its GI50 is 2.26 µM (inactive).

What about the GI50 [10] of the same compound?
The GI50 was 2.14 µM (inactive).

And the GI50 [11]?
Its GI50 is 1.96 µM (inactive).

And the GI50 [12]?
Its GI50 is 1.78 µM (inactive).

And the GI50 [13]?
Its GI50 is 2.63 µM (inactive).

What about the GI50 [14] of the same compound?
The GI50 was 1.67 µM (inactive).

What about the GI50 [15] of the same compound?
Its GI50 is 2.01 µM (inactive).

What about the GI50 [16] of the same compound?
Its GI50 is 1.81 µM (inactive).

And the GI50 [17]?
The GI50 was 1.42 µM (inactive).

What about the GI50 [18] of the same compound?
The GI50 was 2.98 µM (inactive).

What about the GI50 [19] of the same compound?
Its GI50 is 1.71 µM (inactive).

What about the GI50 [20] of the same compound?
Its GI50 is 1.77 µM (inactive).

And the GI50 [21]?
The GI50 was 2.15 µM (inactive).

And the GI50 [22]?
Its GI50 is 1.43 µM (inactive).

And the GI50 [23]?
Its GI50 is 1.8 µM (inactive).

And the GI50 [24]?
Its GI50 is 1.85 µM (inactive).

What about the GI50 [25] of the same compound?
Its GI50 is 1.53 µM (inactive).

What about the GI50 [26] of the same compound?
Its GI50 is 1.73 µM (inactive).

What about the GI50 [27] of the same compound?
Its GI50 is 1.39 µM (inactive).

What about the GI50 [28] of the same compound?
Its GI50 is 1.66 µM (inactive).

What about the GI50 [29] of the same compound?
The GI50 was 1.73 µM (inactive).

What about the GI50 [30] of the same compound?
The GI50 was 2.04 µM (inactive).

And the GI50 [31]?
The GI50 was 2.69 µM (inactive).

What about the GI50 [32] of the same compound?
Its GI50 is 1.67 µM (inactive).

And the GI50 [33]?
The GI50 was 1.95 µM (inactive).

What about the GI50 [34] of the same compound?
The GI50 was 1.79 µM (inactive).

And the GI50 [35]?
The GI50 was 1.79 µM (inactive).

What about the GI50 [36] of the same compound?
The GI50 was 1.85 µM (inactive).

And the GI50 [37]?
The GI50 was 1.86 µM (inactive).

And the GI50 [38]?
The GI50 was 2.19 µM (inactive).

And the GI50 [39]?
The GI50 was 4.06 µM (inactive).

And the GI50 [40]?
Its GI50 is 1.91 µM (inactive).

What about the GI50 [41] of the same compound?
Its GI50 is 1.73 µM (inactive).

And the GI50 [42]?
Its GI50 is 1.88 µM (inactive).

What about the GI50 [43] of the same compound?
Its GI50 is 1.77 µM (inactive).

And the GI50 [44]?
The GI50 was 1.87 µM (inactive).

What about the GI50 [45] of the same compound?
The GI50 was 2.15 µM (inactive).

What about the GI50 [46] of the same compound?
The GI50 was 1.75 µM (inactive).

And the GI50 [47]?
The GI50 was 1.96 µM.

What about the GI50 [48] of the same compound?
The GI50 was 1.93 µM (inactive).

What about the GI50 [49] of the same compound?
Its GI50 is 1.31 µM (inactive).

What about the GI50 [50] of the same compound?
The GI50 was 1.61 µM (inactive).

What about the GI50 [51] of the same compound?
Its GI50 is 1.71 µM (inactive).

What about the GI50 [52] of the same compound?
Its GI50 is 1.71 µM (inactive).

What about the GI50 [53] of the same compound?
Its GI50 is 1.92 µM (inactive).

And the GI50 [54]?
The GI50 was 1.71 µM (inactive).

What about the GI50 [55] of the same compound?
The GI50 was 1.8 µM (inactive).

And the GI50 [56]?
Its GI50 is 1.73 µM (inactive).

And the GI50 [57]?
The GI50 was 1.77 µM (inactive).

And the GI50 [58]?
Its GI50 is 2.01 µM (inactive).

What about the GI50 [59] of the same compound?
The GI50 was 1.78 µM (inactive).
